The values below come from patent US12479816B2, “20-HETE formation inhibitors” (UNIVERSITY OF PITTSBURGH—OF THE COMMONWEALTH SYSTEM OF …, priority 2019, dated 2025).

Data set [1] has as its system 20-HETE formation (CYP4) in HLM. The experiment in a line: Inhibition of 20-HETE formation at 250 or 500 nM in HLM microsomal incubations. Format: biochemical, human. To be noted: HLM 300 μg/ml, AA 100 μM, 20 min; for HLM % inh. @ 500 nM: 500 nM compound; for HLM % inh. @ 250 nM: 250 nM compound. Summed up:
(§1)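 Protein 300 μg/ml (microsomes) / 25 pmol/mL (rCYP4F2); AA 100 μM; NADPH 1 mM start; KPi 0.12 M + 5 mM MgCl2; 20 min, 37° C. Read-out: 20-HETE by UPLC-MS/MS (d6 IS), % of vehicle, n=3.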

Data set [2] has the same test system. Put plainly: IC50 determination, 20-HETE formation in HLM. Format: biochemical, human. To be noted: HLM 300 μg/ml, AA 100 μM, 12 concentrations. The method in brief:
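Human or rat liver microsomes (300 μg/ml) with arachidonic acid 100 μM, NADPH 1 mM, compound at 12 concentrations (0.1 nM-50 μM) in phosphate/MgCl2 buffer, 20 min at 37 °C. 20-HETE quantified by UPLC-MS/MS against d6 internal standard, normalised to vehicle; IC50 by nonlinear regression.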

The subject of data set [3] is formation of EETs and DiHETs (epoxygenase activity) in HLM. The experiment in a line: Selectivity: inhibition of EETs and DiHETs formation (epoxygenase activity) in HLM. Format: biochemical, human. To be noted: for IC50: sum of EETs and DiHETs. On the procedure:
Selectivity of compounds for inhibition of 20-HETE formation vs inhibition of formation of 8,9-, 11,12-, 14,15-EET and 5,6-, 8,9-, 11,12-, 14,15-DiHETs was assessed via the simultaneous monitor of formation of 20-HETE and those metabolites under the UPLC-MS/MS assay conditions described above using HLM incubations and the same 12 test compound concentrations (0.1 nM-[…]) used for the IC50 determination experiments. At each of the 12 concentrations, the selectivity of 20-HETE inhibition over the other metabolites was compared. Epoxygenase activity was assessed by the sum of EETs and DiHETEs as percentage of control.

Data set [4] deals with 20-HETE formation (CYP4) in RLM. Put plainly: Inhibition of 20-HETE formation at 250 or 500 nM in RLM microsomal incubations. Format: biochemical, rat. To be noted: RLM 300 μg/ml; for RLM % inh. @ 500 nM: 500 nM compound; for RLM % inh. @ 250 nM: 250 nM compound. Summed up: as §1
A short description of data set [5]: Turbidometric solubility determination. To be noted: PBS with 1% DMSO, aqueous buffer, kinetic from dmso stock, room temperature. Format: physicochemical. The method in brief:
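Precipitation was detected as a significant rise in absorbance at 620 nm over background, and this point set the maximum solubility. Compound was tested in PBS with 1% DMSO at final concentrations from 0 to 600 μM, in triplicate, after 2 h of shaking at room temperature.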

Where two headings read alike, the source gives them in different places. Some results are limits rather than exact numbers.

Regarding `COc1ccc(C2CCN(c3cn[nH]c3)CC2)cc1` [Compound 20, 4-(4-Methoxyphenyl)-1-(1H-pyrazol-4-yl)piperidine], the “HLM % inh. @ 500 nM” value in data set [1] was 73.10%. Moreover, inhibition in data set [2] was half-maximal at 0.07 µM (IC50). Also, the “EETs Inhibition, % @ 50,000” value in data set [3] (at 50,000 (nM per column head)) is 3.1%@ 50,000. Further, in data set [4], the “RLM % inh. @ 500 nM” value was 25.90%. The solubility at 2 h stood at 35 µM in data set [5] (OD620, read-out: Max Solub) and 9 µg/mL in data set [5] (read-out: Solubility_ug/mL).
For `c1ccc(CC2CCN(c3cn[nH]c3)CC2)cc1` [Compound 3, 4-Benzyl-1-(1H-pyrazol-4-yl)piperidine], the “HLM % inh. @ 500 nM” value in data set [1] is 77.30%. Moreover, the IC50 (commonly the concentration needed to halve the response being measured) in data set [2] was 0.05 µM; in data set [3], over 25000 nM. For the same molecule, the “RLM % inh. @ 500 nM” value in data set [4] was determined as 2.40%. The solubility at 2 h is 505 µM in data set [5] (OD620, read-out: Max Solub) and 122 µg/mL in data set [5] (read-out: Solubility_ug/mL).
As for `Clc1ccc(CC2CCN(c3cn[nH]c3)CC2)cc1` [Compound 93, 4-(4-Chlorobenzyl)-1-(1H-pyrazol-4-yl)piperidine], in data set [1], the “HLM % inh. @ 500 nM” value came to 93.03%. In data set [2], this molecule gave an IC50 of 0.017 µM. In addition, in data set [3] (at 10 μM), the “EETs Inhibition, % @ 10 μM” value came out at 50% @ 10 μM. In data set [4], the “RLM % inh. @ 500 nM” value is given as 64.30%. Moreover, the solubility at 2 h in data set [5] (OD620, read-out: Max Solub) is 117 µM.
Turning to `O=C1CCCN1Cc1ccc(C2CCN(c3cn[nH]c3)CC2)cc1` [Compound 83, 1-(4-(1-(1H-Pyrazol-4-yl)piperidin-4-yl)benzyl)pyrrolidin-2-one], the “HLM % inh. @ 500 nM” value in data set [1] worked out at 91.6%. Further, the IC50 in data set [2] is 0.0542 µM; in data set [3], over 50 nM. Moreover, the “RLM % inh. @ 500 nM” value in data set [4] was found to be 49.60%. Also, the solubility at 2 h in data set [5] (OD620, read-out: Max Solub) was over 600 µM.
For the molecule `c1ccc(C2CCN(c3cn[nH]c3)CC2)cc1` [Compound 1, 4-Phenyl-1-(1H-pyrazol-4-yl)piperidine], the “HLM % inh. @ 250 nM” value in data set [1] stood at 64.29%. Further, the “HLM % inh. @ 500 nM” value in data set [1] was 78.80%. Moreover, the IC50 in data set [2] is 0.19 µM; in data set [3], over 10000 nM. Besides, in data set [4], the “RLM % inh. @ 250 nM” value was found to be 27.40%. Besides, the solubility at 2 h in data set [5] (OD620, read-out: Max Solub) stood at 121 µM; in data set [5] (read-out: Solubility_ug/mL) it was 28 µg/mL.
Regarding `O=C1CCCN1c1ccc(C2CCN(c3cn[nH]c3)CC2)cc1` [Compound 100, 1-(4-(1-(1H-Pyrazol-4-yl)piperidin-4-yl)phenyl)pyrrolidin-2-one], the “HLM % inh. @ 500 nM” value in data set [1] amounted to 76.1%. Moreover, the IC50 in data set [2] was 0.054 µM; in data set [3] it was over 50 nM. The “RLM % inh. @ 500 nM” value in data set [4] turned out to be 42.90%. The solubility at 2 h in data set [5] (OD620, read-out: Max Solub) is 74 µM.
As for `COc1ccc(C2CCN(c3ccn[nH]3)CC2)cc1` [Compound 19, 4-(4-Methoxyphenyl)-1-(1H-pyrazol-5-yl)piperidine], the “HLM % inh. @ 500 nM” value in data set [1] is recorded as 72.30%. Moreover, the IC50 in data set [2] was 0.14 µM; in data set [3], over 25000 nM. The “RLM % inh. @ 500 nM” value in data set [4] is 31.80%. The solubility at 2 h in data set [5] (OD620, read-out: Max Solub) was found to be 106 µM; in data set [5] (read-out: Solubility_ug/mL) it was 27.3 µg/mL.
With `CC(=O)N(C)c1ccc(C2CCN(c3cn[nH]c3)CC2)cc1` [Compound 28, N-(4-(1-(1H-Pyrazol-4-yl)piperidin-4-yl)phenyl)-N-methylacetamide], the “HLM % inh. @ 500 nM” value in data set [1] turned out to be 75.00%. Besides, the IC50 in data set [2] came to 0.1 µM. The “RLM % inh. @ 500 nM” value in data set [4] stood at 52.00%. Also, the solubility at 2 h in data set [5] (OD620, read-out: Max Solub) was over 600 µM; in data set [5] (read-out: Solubility_ug/mL) it was 179 µg/mL.
As to `c1ccc(C2CCN(c3ccn[nH]3)CC2)cc1` [Compound 54, 4-Phenyl-1-(1H-pyrazol-5-yl)piperidine], the “HLM % inh. @ 250 nM” value in data set [1] was 31.60%. Besides, the “HLM % inh. @ 500 nM” value in data set [1] is reported as 47.40%. For the same molecule, the IC50 was 0.44 µM in data set [2] and over 50000 nM in data set [3]. Moreover, the “RLM % inh. @ 250 nM” value in data set [4] is reported as 12.00%. Moreover, the solubility at 2 h is over 600 µM in data set [5] (OD620, read-out: Max Solub) and 137 µg/mL in data set [5] (read-out: Solubility_ug/mL).
As for `Cc1cccc(C2CCN(c3cn[nH]c3)CC2)c1` [Compound 34, 1-(1H-Pyrazol-4-yl)-4-(m-tolyl)piperidine], the “HLM % inh. @ 500 nM” value in data set [1] worked out at 80.00%. Moreover, in data set [2], half-maximal inhibition (IC50) required 0.11 µM. For the same molecule, the “RLM % inh. @ 500 nM” value in data set [4] is reported as 44.00%. In addition, the solubility at 2 h in data set [5] (OD620, read-out: Max Solub) is over 600 µM; in data set [5] (read-out: Solubility_ug/mL), 145 µg/mL.
